These results are taken from patent publication US10391168B1, “Anti-CD70 combination therapy” (University of Bern, priority 2014, dated 2019).

In assay [1] the test system is imatinib-resistant KBM5r cells (BCR-ABL1 T315I). The assay can be described thus: CD70, SP1, DNMT1 expression and viability in imatinib-resistant KBM5r cells. The class given is cell-based, human. The procedure: Specifically, 5×10^4 KBM5r cells were transduced overnight at 37° C. and 5% CO2 with 2×10^5 infectious units of shSP1 or the respective control lentiviral particles having scrambled RNA (Santa Cruz Biotechnology Inc.) in the presence of 5 μg/ml polybrene (Sigma-Aldrich) according to the manufacturer's instructions. After 18 hours, medium was removed, and cells were cultured in medium supplemented with 1 μg/ml puromycin to select for stable expression of shSP1 or scrambled RNA.
KBM5r cells (1×10^5) stably transduced with shSP1 (shSP1), or the respective control scrambled RNA lentiviral particles (scr), were then cultured for 72 hours in the presence of vehicle or ponatinib (po; 0.1 μM). Treated cells were tested for MFI of CD70 protein expression (FACS) (FIG. 1, q), CD70 (FIG. 1, r) and SP1 (Figure, 1 s) mRNA expression (qRT-PCR).
In a first experiment, 1×10^5 KBM5r cells were cultured in the presence of vehicle, ponatinib (po, 0.1 μM), lithium chloride (li, […]), or both in combination (po/li) for 24 h (FIG. 2, A-C). In a second experiment, 1×10^5 KBM5r cells were cultured in the presence of vehicle, ponatinib (po, 0.1 μM), R-Spondin 1 (R, 10 ng/ml), or both in combination (po/R) for 72 h (FIG. 2, D-E).

A further assay relates to KBM5r cells. Nature of the assay: miR-29 expression and anti-miR silencing in KBM5r cells (qRT-PCR). The class given is cell-based, human. The settings on record: imatinib 1 μM, nilotinib 1 μM, ponatinib 0.1 μM; 72 h. In general terms: In qPCR the cycle at which signal appears reflects the starting amount.
The test system of assay [2] is CD70 promoter in KBM5r cells. Nature of the assay: DNA methylation analysis of the CD70 promoter by bisulfite sequencing. The settings on record: ponatinib 0.1 μM or azacytidine 1 μM, vs vehicle. In kind it is cell-based, human. The method, then:
The methylation profile of the SP1 transcription factor binding sites within the KBM5r cell CD70 promoter was analyzed by bisulfite sequencing after treatment of KBM5r cells with either a control, ponatinib (0.1 μM) or azacytidine (1 μM).
Bisulfite conversion of the isolated DNA samples from both KBM5 and KBM5r cells were assessed using the Epitect® Bisulfite Kit (Qiagen) according to the manufacturer's protocol. The promoter region covering binding sites for important transcription factors were selectively amplified using the following primers: forward primer (−227˜−205): 5′-[…]-3′ (SEQ ID NO.: 9); reverse primer (+14˜+35): 5′-[…]-3′(SEQ ID NO.: 10). For the amplification of bisulfite-treated genomic DNA (gDNA), the following PCR conditions were used: 1×: 95° C. for 10 min; 40×: 95° C. for 30 s, 58° C. for 40 s, 72° C. for 1 min; 1×72° C. for 5 min. The PCR cocktail was: 3 μl of DNA (of at least 10 ng/μL DNA for a final concentration of […]) in a 25 μl total volume using 0.5 pmol of each primer, 200 μM dNTPs, 0.2 U Hot Start Taq DNA polymerase, 1.5 mM MgCl2 and the buffer supplied with the enzyme. The amplified promoter region were gel-purified and subjected for fluorescent Sanger sequencing. The relative quantification of the methylated allele (C) versus unmethylated allele (T) was assessed by the QSVAnalyser software. […]

For assay [3], the system named is conditional APC mutant mice. The settings on record: mouse, in vivo; cited from earlier work.
The subject of the next assay is Xenopus embryos. The settings on record: in vivo; cited from earlier work.
The subject of another assay is colon carcinoma cells. The settings on record: cited from earlier work.
For a further assay, the system named is DLD-1-cancer cells. The settings on record: colorectal adenocarcinoma derived; cited from earlier work.
For a further assay, the system named is β-catenin. The settings on record: cited from earlier work.
Assay [4] deals with xenograft models of breast, lung, pancreatic, and colon cancer. The settings on record: in vivo; cited from earlier work.
Assay [5] concerns pancreatic tumor-initiating cells. The settings on record: cited from earlier work.
[6] abbreviates: 72 h, imatinib 1 μM, ponatinib 0.1 μM.

With `[Cl-].[Li+]` [lithium chloride], the “TKI-mediated changes in CD70, SP1, DNMT1 mRNA expression” value in assay [1] (lithium chloride 10 μM with ponatinib 0.1 μM, 24 h) is given as “restored TKI-mediated changes in gene expression”.
`Cc1ccc(C(=O)Nc2ccc(CN3CCN(C)CC3)c(C(F)(F)F)c2)cc1C#Cc1cnc2cccnn12` [ponatinib]: the “miR-29a, miR-29b, miR-29c expression” value in the assay with KBM5r cells is reported as “down-regulation of all three miR-29s”. Moreover, in assay [1] (setting [6]), the “CD70 mRNA expression” value is “induced”, the “Dnmt 1 mRNA expression” value was “down-regulated Dnmt1 mRNA” and the “SP1 mRNA expression” value is “up-regulated SP1”. Also, the “CD70 protein expression (FACS)” value in assay [1] (72 h, therapeutic concentration (imatinib 1 μM, ponatinib 0.1 μM)) is on record as “induced CD70 protein expression”. In addition, in assay [1] (ponatinib 0.1 μM, 16 h), the “CD70 protein expression (MFI) early after treatment” value is “already up-regulated after 16 hours” and the “cell death (Annexin-V/7-AAD FACS)” value is on record as “did not induce substantial cell death”. For the same molecule, in assay [1] (ponatinib 0.1 μM, 72 h, vs scrambled control RNA cells), the “CD70 expression in SP1 knockdown (shSP1) KBM5r cells” value is reported as “did not up-regulate CD70”. Further, the “CD70 promoter DNA methylation” value in assay [2] was “significantly reduced CD70 promoter DNA methylation”.
`COc1ccc(C2(CNC(=O)c3ccc(NC(=O)c4ccco4)cc3)CCOCC2)cc1` [JW55, N-(4-(((4-(4-methoxyphenyl)tetrahydro-2H-pyran-4-yl)methyl)carbamoyl)phenyl)furan-2-carboxamide]: the tamoxifen-induced polyposis formation result in [3] was “reduced”. Further, the XWNT8-induced axis duplication result with Xenopus embryos is recorded as “reduced XWNT8-induced axis duplication”. Also, the “canonical WNT signaling” value with colon carcinoma cells (cells with mutations in APC locus or an allele of β-catenin) was “inhibited canonical WNT signaling”. Besides, the “AXIN2 and β-catenin levels” value with colon carcinoma cells is “stabilization of AXIN2, a member of the β-catenin destruction complex, followed by increased degradation of β-catenin”.
For the molecule `O=c1nc(-c2ccc(C(F)(F)F)cc2)[nH]c2c1CSCC2` [XAV939], in the assay on DLD-1-cancer cells, the “growth of DLD-1 cancer cells” value is “inhibits growth”. Besides, the “WNT-stimulated accumulation of β-catenin” value with β-catenin is reported as “blocks WNT-stimulated accumulation of β-catenin”.
With `Cc1cn(-c2cc(NC(=O)c3ccc(C)c(Nc4nccc(-c5cccnc5)n4)c3)cc(C(F)(F)F)c2)cn1` [nilotinib], the “miR-29a, miR-29b, miR-29c expression” value in the assay on KBM5r cells is given as “did not affect miR-29s”.

B1: OMP-18R5: monoclonal antibody that targets the Frizzled receptors to block association with WNT ligands (antibody, chains of the INN, looked up, V domains shown)
VH: EVQLVESGGGLVQPGGSLRLSCAASGFTFSHYTLSWVRQAPGKGLEWVSVISGDGSYTYYADSVKGRFTISSDNSKNTLYLQMNSLRAEDTAVYYCARNFIKYVFANWGQGTLVTVSS
VL: DIELTQPPSVSVAPGQTARISCSGDNIGSFYVHWYQQKPGQAPVLVIYDKSNRPSGIPERFSGSNSGNTATLTISGTQAEDEADYYCQSYANTLSLVFGGGTKLTVL
Take B1: in [4], the “interaction with standard-of-care treatment” value is “synergized with standard-of-care treatment” and the tumor growth result is reported as “significant inhibition of tumor growth”. In addition, in [5], the “capabilities of pancreatic tumor-initiating cells” value is “potently block the capabilities of pancreatic tumor-initiating cells”.

B2: R-Spondin 1: specific Wnt activator (protein, UniProt Q2MKA7 21-263, looked up)
R-spondin-1: SRGIKGKRQRRISAEGSQACAKGCELCSEVNGCLKCSPKLFILLERNDIRQVGVCLPSCPPGYFDARNPDMNKCIKCKIEHCEACFSHNFCTKCKEGLYLHKGRCYPACPEGSSAANGTMECSSPAQCEMSEWSPWGPCSKKQQLCGFRRGSEERTRRVLHAPVGDHAACSDTKETRRCTVRRVPCPEGQKRRKGGQGRRENANRNLARKESKEAGAGSRRRKGQQQQQQQGTVGPLTSAGPA
With B2, in assay [1] (R-Spondin 1 10 ng/ml with ponatinib 0.1 μM, 72 h), the “TKI-mediated changes in CD70, SP1, DNMT1 mRNA expression” value is given as “restored TKI-mediated changes in gene expression”.
